Measurements taken from PubChem BioAssay (NCI).
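Compound exposure: 48 hours, 5 concentrations, 96-well plates. TGI marks complete inhibition of growth.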

Key:
Assay in all cases: DTP human tumour cell line panel, 48 h
CAKI-1 renal = test system: CAKI-1 renal
SW-620 colon = test system: SW-620 colon
SNB-19 CNS = test system: SNB-19 CNS
DU-145 prostate = test system: DU-145 prostate
SK-OV-3 ovarian = test system: SK-OV-3 ovarian
BT-549 breast = test system: BT-549 breast
OVCAR-5 ovarian = test system: OVCAR-5 ovarian
MCF7 breast = test system: MCF7 breast
OVCAR-3 ovarian = test system: OVCAR-3 ovarian
TK-10 renal = test system: TK-10 renal

Row | Compound | TGI (CAKI-1 renal) [µM] | TGI (SW-620 colon) [µM] | TGI (SNB-19 CNS) [µM] | TGI (DU-145 prostate) [µM] | TGI (SK-OV-3 ovarian) [µM] | TGI (BT-549 breast) [µM] | TGI (OVCAR-5 ovarian) [µM] | TGI (MCF7 breast) [µM] | TGI (OVCAR-3 ovarian) [µM] | TGI (TK-10 renal) [µM]
1 | Cc1ccc(C(=O)Nc2ccc(S(=O)(=O)O)c3cc(S(=O)(=O)O)cc(S(=O)(=O)O)c23)cc1NC(=O)c1cccc(NC(=O)Nc2cccc(C(=O)Nc3cc(C(=O)Nc4ccc(S(=O)(=O)O)c5cc(S(=O)(=O)O)cc(S(=O)(=O)O)c45)ccc3C)c2)c1 (tested in a mixture with another compound) | > 50 | > 50 | > 50 | > 50 | > 50 | > 50 | > 50 | > 50 | > 50 | –
2 | CCOc1ccc2nc(NC(NC(=O)c3cccnc3)(C(F)(F)F)C(F)(F)F)sc2c1 | > 100 | > 100 | > 100 | > 100 | > 100 | > 100 | > 100 | 91.4 | > 100 | > 100
3 | CC(C)(C)[C@H]1CCC2(OCCO2)[C@](O)(CCCO)C1 | > 100 | > 100 | > 100 | > 100 | > 100 | > 100 | > 100 | > 100 | > 100 | > 100
4 | C=C(C(=O)OC)c1cc2ccccc2n1S(=O)(=O)c1ccccc1 | 2.4 | 4.63 | 34 | 8.51 | 26 | 5.12 | 21.7 | 8.11 | 11.4 | 3.91
5 | CCN1CCC(O)(c2ccc(Oc3ccc(C)cc3)cc2)C(C(=O)c2ccc(Oc3ccc(C)cc3)cc2)C1 (configuration not stated) | 25.8 | 27.7 | 27.2 | 20.1 | 29.7 | 22.4 | 32.1 | 8.41 | 36.9 | 20.8
6 | CC(=O)N1c2ccccc2C(C)C1c1[nH]c2ccccc2c1C (configuration not stated) | 70.6 | > 100 | > 100 | > 100 | 43.9 | 58.1 | 34 | > 100 | 46.1 | 76.1
7 | CC(=O)OCC1=C(C)C[C@H]([C@@H](COC(C)=O)C2CCC3C4C[C@H]5O[C@]56CC=CC(=O)[C@]6(C)C4CC[C@@]32C)OC1=O (some centres not stated) | 2.64 | 0.322 | 7.72 | 1.41 | 6.93 | 3.65 | 3.13 | 2.09 | 0.553 | 19.2
8 | c1ccc(-c2cc(-c3cccs3)c(-c3cccs3)o2)cc1 | > 100 | > 100 | > 100 | > 100 | > 100 | > 100 | > 100 | > 100 | > 100 | > 100
9 | Clc1c(C(Cl)(Cl)Cl)nsc1N1CCCCC1 | 55.2 | > 100 | 69.7 | > 100 | 78.9 | 48.4 | > 100 | 69.3 | 56.9 | > 100
10 | C=C(C)[C@@H]1CCC2=C[C@H](CC(C)=CC3=CC(C)=C(O3)[C@@H]1OC)OC2=O | > 100 | > 100 | > 100 | > 100 | – | > 100 | > 100 | > 100 | > 100 | > 100
11 | CCOC(=O)C(C(=O)OCC)=C1NC2(c3ccccc3Nc3ccc(C)cc32)C(C(=O)OC)S1 (configuration not stated) | > 100 | > 100 | > 100 | > 100 | > 100 | > 100 | > 100 | > 100 | > 100 | > 100
12 | C=CCN(c1cc(OC)c2[nH]cc(C)c2c1[N+](=O)[O-])S(C)(=O)=O | > 100 | > 100 | > 100 | > 100 | > 100 | > 100 | > 100 | > 100 | > 100 | > 100
13 | CCSc1nc(N)c2c(-c3ccccc3)c3c(nc2n1)CCC3 | > 100 | > 100 | > 100 | > 100 | > 100 | > 100 | > 100 | > 100 | > 100 | > 100
14 | CCN(CC)CCCOc1cc2c(cc1OC)C(=O)N1CCC[C@H]1C=N2 | 44.3 | 33.2 | > 100 | > 100 | > 100 | 76.1 | > 100 | > 100 | 50 | > 100
15 | COc1cc2c(cc1OCCCC(=O)Nc1cc(C(=O)NCCCN(C)C)n(C)n1)N=CC1CCCN1C2=O (configuration not stated) | 50.9 | > 25 | > 37.4 | > 41.6 | > 62.3 | 29.7 | > 26.9 | > 80.7 | 74.2 | 14.9
16 | c1ccc2nc(CCC3CCCCN3)ccc2c1 (configuration not stated) | > 100 | > 100 | > 100 | > 100 | > 100 | > 100 | > 100 | > 100 | – | > 100
17 | COC(=O)c1ccccc1C1CN=NC12Cc1cccc(C)c1C2=O (configuration not stated) | > 100 | > 100 | > 100 | > 100 | > 100 | > 100 | > 100 | 91.9 | 82.1 | > 100
18 | CCN(CC)C(=O)N1CN(c2ccccc2)C2(CCN(CCCSc3ccc(F)cc3)CC2)C1=O | > 100 | 43 | > 100 | 40.7 | 63 | 31.4 | 36.9 | > 100 | 18.6 | 31.5
19 | Nn1c(Cc2ccccc2)n[nH]c1=O | > 100 | > 100 | > 100 | > 100 | > 100 | > 100 | > 100 | > 100 | > 100 | > 100
20 | Cc1cc2nc(N3C(=O)/C(=C/c4ccc(Cl)cc4)N=C3c3ccccc3)sc2cc1C | > 100 | > 100 | > 100 | > 100 | > 100 | 81.7 | 92.7 | > 100 | 50 | > 100
21 | Clc1nc(Cl)c(CBr)c(Cl)n1 | 23.3 | 3.99 | 33.3 | 30.6 | 29 | 4.17 | 15 | 26 | 13.3 | 16.9
